Reference: ChEMBL document CHEMBL1201862, “PubChem BioAssay data set” (2004)
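Test compounds were applied to cells in 96-well plates for 48 hours at 5 doses. GI50 = concentration required for 50% inhibition of growth.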 The source made the active and inactive calls. No stated cut-off is given here; in the data, active = GI50 up to about 1.1 µM and inactive = higher. *1 amine or outer side, *2 acyl side, *3 side chain or, on linkers, in order; H or OH if unused. Where a SMILES comes first, the peptide text is derived from it. [ ]: non-standard residue; d: D form. The star is where a group is joined. ξ: configuration not given here. X53 = CC(C)C[C@H](N[*:1])C1=N[C@H](C(=O)[*:2])CS1; Ile(3ξ) = CCC(C)[C@H](N)C(=O)O; Allyl(1,1-Me2) = C=CC(C)(C)*

What was measured:
Assay in all cases: inhibition of tumour cell growth, NCI panel, 48 h
ACHN = test system: ACHN
BT-549 = test system: BT-549
CAKI-1 = test system: CAKI-1
EKVX = test system: EKVX
HCT-116 = test system: HCT-116
HCT-15 = test system: HCT-15
HOP-92 = test system: HOP-92
MDA-MB-435 = test system: MDA-MB-435
MDA-N = test system: MDA-N
NCI-H522 = test system: NCI-H522
NCI/ADR-RES = test system: NCI/ADR-RES
OVCAR-5 = test system: OVCAR-5
OVCAR-8 = test system: OVCAR-8
PC-3 = test system: PC-3
SF-295 = test system: SF-295
SNB-75 = test system: SNB-75
SR = test system: SR
SW-620 = test system: SW-620
NCI-H226 = test system: NCI-H226

Row | SMILES | GI50 (ACHN) | GI50 (BT-549) | GI50 (CAKI-1) | GI50 (EKVX) | GI50 (HCT-116) | GI50 (HCT-15) | GI50 (HOP-92) | GI50 (MDA-MB-435) | GI50 (MDA-N) | GI50 (NCI-H522) | GI50 (NCI/ADR-RES) | GI50 (OVCAR-5) | GI50 (OVCAR-8) | GI50 (PC-3) | GI50 (SF-295) | GI50 (SNB-75) | GI50 (SR) | GI50 (SW-620) | GI50 (NCI-H226)
1 | NC(=S)C1=C(N)Oc2c(c(=O)oc3ccccc23)C1c1ccc(Br)cc1 (configuration not stated) | > 100 µM (inactive) | > 100 µM (inactive) | > 100 µM (inactive) | > 100 µM (inactive) | > 100 µM (inactive) | > 100 µM | 40 µM (inactive) | > 100 µM (inactive) | > 100 µM (inactive) | 74.8 µM (inactive) | > 100 µM (inactive) | > 100 µM (inactive) | > 100 µM (inactive) | > 100 µM (inactive) | > 100 µM (inactive) | 82.6 µM (inactive) | 1.61 µM (inactive) | > 100 µM (inactive) | –
2 | C/C(=N/NC(=S)N1CC2CCC(CC2)C1)c1cnccn1 | < 0.012 µM (active) | 0.993 µM (active) | < 0.01 µM (active) | 0.0101 µM (active) | < 0.01 µM (active) | < 0.01 µM | 0.619 µM (active) | 0.243 µM (active) | 0.37 µM (active) | 0.117 µM (active) | < 0.01 µM (active) | 0.255 µM (active) | < 0.01 µM (active) | < 0.01 µM (active) | 0.0551 µM (active) | 0.828 µM (active) | < 0.01 µM (active) | < 0.01 µM (active) | < 0.01 µM (active)
3 | COc1c(Sc2c(SCSc3cnc4ccccc4c3Sc3cnc4ccccc4c3OC)cnc3ccccc23)cnc2ccccc12 | 82.6 µM (inactive) | 54.5 µM (inactive) | > 100 µM (inactive) | 35.7 µM (inactive) | 46.5 µM (inactive) | 84.5 µM | 13.2 µM (inactive) | 26.9 µM (inactive) | 77.8 µM (inactive) | 19.2 µM (inactive) | 42.5 µM (inactive) | > 100 µM (inactive) | 31.7 µM (inactive) | > 100 µM (inactive) | > 100 µM (inactive) | 21.7 µM (inactive) | 21.8 µM (inactive) | 31.6 µM (inactive) | –
4 | CN(Cc1cccc2ccsc12)/N=C\c1ccc(Cl)cc1 | > 100 µM (inactive) | > 100 µM (inactive) | > 100 µM (inactive) | 50.4 µM (inactive) | 28.6 µM (inactive) | 34.7 µM | > 100 µM (inactive) | 49.3 µM (inactive) | 39.2 µM (inactive) | 51.3 µM (inactive) | > 100 µM (inactive) | > 100 µM (inactive) | > 100 µM (inactive) | > 100 µM (inactive) | 30.9 µM (inactive) | 57.1 µM (inactive) | 18.4 µM (inactive) | 80.2 µM (inactive) | 89.9 µM (inactive)
5 | COc1cc2c(cc1OC)CCc1cc(OC)c(OC)cc1CC2 | > 100 µM (inactive) | > 100 µM (inactive) | > 100 µM (inactive) | > 100 µM (inactive) | > 100 µM (inactive) | > 100 µM | > 100 µM (inactive) | > 100 µM (inactive) | > 100 µM (inactive) | – | > 100 µM (inactive) | > 100 µM (inactive) | > 100 µM (inactive) | > 100 µM (inactive) | > 100 µM (inactive) | > 100 µM (inactive) | > 100 µM (inactive) | > 100 µM (inactive) | > 100 µM (inactive)
6 | CN1N(c2ccccc2)C(=O)C2=NC=C(C#N)C(=N)C21C (configuration not stated) | 97.7 µM (inactive) | > 100 µM (inactive) | > 100 µM (inactive) | > 100 µM (inactive) | > 100 µM (inactive) | > 100 µM | > 100 µM (inactive) | > 100 µM (inactive) | > 100 µM (inactive) | > 100 µM (inactive) | > 100 µM (inactive) | > 100 µM (inactive) | > 100 µM (inactive) | > 100 µM (inactive) | > 100 µM (inactive) | > 100 µM (inactive) | 19.8 µM (inactive) | > 100 µM (inactive) | > 100 µM (inactive)
7 | c1ccc2c(Cc3[nH]c4ccccc4c3Cc3c[nH]c4ccccc34)c[nH]c2c1 | 14.5 µM (inactive) | 5.57 µM (inactive) | 2.74 µM (inactive) | 2.61 µM (inactive) | 1.69 µM (inactive) | 2.76 µM | 3.9 µM (inactive) | 2.08 µM (inactive) | 2.16 µM (inactive) | 1.8 µM (inactive) | 2.55 µM (inactive) | 2.85 µM (inactive) | 4.09 µM (inactive) | 2.38 µM (inactive) | 4.3 µM (inactive) | 2.48 µM (inactive) | 2.87 µM (inactive) | 1.74 µM (inactive) | 6.08 µM (inactive)
8 | COc1cc2c(cc1O)NC(=O)[C@@H]1CCCN1C2=O | > 100 µM (inactive) | > 100 µM (inactive) | > 100 µM (inactive) | > 100 µM (inactive) | > 100 µM (inactive) | > 100 µM | > 100 µM (inactive) | > 100 µM (inactive) | > 100 µM (inactive) | > 100 µM (inactive) | > 100 µM (inactive) | > 100 µM (inactive) | > 100 µM (inactive) | > 100 µM (inactive) | > 100 µM (inactive) | > 100 µM (inactive) | > 100 µM (inactive) | > 100 µM (inactive) | > 100 µM (inactive)
9 | O=c1cc(NNc2ccccc2)[nH]c(=S)[nH]1 | 43.7 µM (inactive) | 97.5 µM (inactive) | 20.3 µM (inactive) | 98.9 µM (inactive) | 23.2 µM (inactive) | 17.8 µM | 32.6 µM (inactive) | 49.5 µM (inactive) | 40.6 µM (inactive) | 17.5 µM (inactive) | 40.6 µM (inactive) | > 100 µM (inactive) | 36.1 µM (inactive) | > 100 µM (inactive) | > 100 µM (inactive) | > 100 µM (inactive) | 22.5 µM (inactive) | 20.5 µM (inactive) | > 100 µM (inactive)
10 | CN(C)C1C(O)=C(C(=O)NCN2CCCC2)C(=O)C2(O)C(O)=C3C(=O)c4c(O)cccc4C(C)(O)C3CC12 (configuration not stated) | > 100 µM (inactive) | > 100 µM (inactive) | > 100 µM (inactive) | > 100 µM (inactive) | > 100 µM (inactive) | > 100 µM | > 100 µM (inactive) | 34.5 µM (inactive) | > 100 µM (inactive) | > 100 µM (inactive) | > 100 µM (inactive) | > 100 µM (inactive) | > 100 µM (inactive) | > 100 µM (inactive) | > 100 µM (inactive) | 52.4 µM (inactive) | > 100 µM (inactive) | > 100 µM (inactive) | > 100 µM (inactive)
11 | CN(C)C1C(CO)OC(n2cnc3c(N)ncnc32)C1O (configuration not stated) | > 100 µM (inactive) | > 100 µM (inactive) | > 100 µM (inactive) | > 100 µM (inactive) | > 100 µM (inactive) | > 100 µM | – | > 100 µM (inactive) | > 100 µM (inactive) | > 100 µM (inactive) | > 100 µM (inactive) | > 100 µM (inactive) | > 100 µM (inactive) | > 100 µM (inactive) | > 100 µM (inactive) | > 100 µM (inactive) | > 100 µM (inactive) | > 100 µM (inactive) | > 100 µM (inactive)
12 | FC(F)(F)c1ccc(C2=N/S(c3ccccc3)=N\C(c3ccc(C(F)(F)F)cc3)=N/S(c3ccccc3)=N\2)cc1 (configuration not stated) | > 100 µM (inactive) | > 100 µM (inactive) | > 100 µM (inactive) | > 100 µM (inactive) | > 100 µM (inactive) | > 100 µM | > 100 µM (inactive) | > 100 µM (inactive) | > 100 µM (inactive) | > 100 µM (inactive) | > 100 µM (inactive) | > 100 µM (inactive) | > 100 µM (inactive) | > 100 µM (inactive) | > 100 µM (inactive) | > 100 µM (inactive) | > 100 µM (inactive) | > 100 µM (inactive) | –
13 | CCCC(CCN)(CCN)[N+](=O)[O-] | > 100 µM (inactive) | > 100 µM (inactive) | > 100 µM (inactive) | > 100 µM (inactive) | > 100 µM (inactive) | > 100 µM | – | > 100 µM (inactive) | > 100 µM (inactive) | > 100 µM (inactive) | > 100 µM (inactive) | > 100 µM (inactive) | > 100 µM (inactive) | > 100 µM (inactive) | > 100 µM (inactive) | 11.2 µM (inactive) | > 100 µM (inactive) | > 100 µM (inactive) | > 100 µM (inactive)
14 | COc1ccc(C(=O)/C=C/c2ccc(OCC(=O)O)cc2)cc1 | > 100 µM (inactive) | 38.6 µM (inactive) | > 100 µM (inactive) | > 100 µM (inactive) | 47.1 µM (inactive) | > 100 µM | 31.5 µM (inactive) | 32.8 µM (inactive) | 34.4 µM (inactive) | 36 µM (inactive) | 83.4 µM (inactive) | > 100 µM (inactive) | 74.3 µM (inactive) | > 100 µM (inactive) | > 100 µM (inactive) | > 100 µM (inactive) | 13 µM (inactive) | 41.5 µM (inactive) | –
15 | C=CC(C)(C)OC[C@@H]1NC(=O)CNC(=O)[C@@H]2CCCN2C(=O)[C@H](C(C)CC)NC(=O)[C@@H]2CSC(=N2)[C@H](CC(C)C)NC1=O (some centres not stated) (cyclo(GS(Allyl(1,1-Me2))[X53][Ile(3ξ)]P)) | 76.6 µM (inactive) | 23.1 µM (inactive) | 75 µM (inactive) | 64.3 µM (inactive) | 56.5 µM (inactive) | 58.1 µM | 37.3 µM (inactive) | 26.4 µM (inactive) | > 100 µM (inactive) | 32.9 µM (inactive) | > 100 µM (inactive) | > 100 µM (inactive) | 69.3 µM (inactive) | 44.2 µM (inactive) | 45.2 µM (inactive) | 34.5 µM (inactive) | 64.4 µM (inactive) | – | > 100 µM (inactive)
